# Experimental data taken from US10155004B2, “17-hydroxy-17-pentafluoroethyl-estra-4,9(10)-dien-11-aryl derivatives, method of production thereof and use thereof for the treatment of diseases” (BAYER INTELLECTUAL PROPERTY GMBH, priority 2009, dated 2018).
# Key:
# [1] = target: T1, human progesterone receptor A (Homo sapiens, UniProt P06401); experiment: Progesterone receptor-antagonistic action in stably transfected SK-N-MC cells, MTV-LUC reporter (PR-A); assay type: cell-based; conditions: antagonistic efficacy vs 0.1 nmol/l promegestone
# T1 construct: expressed in transfected cells; host or cells: SK-N-MC human neuroblastoma cells, stably transfected
# T1 sequence (P06401 1-769 isoform P06401-2): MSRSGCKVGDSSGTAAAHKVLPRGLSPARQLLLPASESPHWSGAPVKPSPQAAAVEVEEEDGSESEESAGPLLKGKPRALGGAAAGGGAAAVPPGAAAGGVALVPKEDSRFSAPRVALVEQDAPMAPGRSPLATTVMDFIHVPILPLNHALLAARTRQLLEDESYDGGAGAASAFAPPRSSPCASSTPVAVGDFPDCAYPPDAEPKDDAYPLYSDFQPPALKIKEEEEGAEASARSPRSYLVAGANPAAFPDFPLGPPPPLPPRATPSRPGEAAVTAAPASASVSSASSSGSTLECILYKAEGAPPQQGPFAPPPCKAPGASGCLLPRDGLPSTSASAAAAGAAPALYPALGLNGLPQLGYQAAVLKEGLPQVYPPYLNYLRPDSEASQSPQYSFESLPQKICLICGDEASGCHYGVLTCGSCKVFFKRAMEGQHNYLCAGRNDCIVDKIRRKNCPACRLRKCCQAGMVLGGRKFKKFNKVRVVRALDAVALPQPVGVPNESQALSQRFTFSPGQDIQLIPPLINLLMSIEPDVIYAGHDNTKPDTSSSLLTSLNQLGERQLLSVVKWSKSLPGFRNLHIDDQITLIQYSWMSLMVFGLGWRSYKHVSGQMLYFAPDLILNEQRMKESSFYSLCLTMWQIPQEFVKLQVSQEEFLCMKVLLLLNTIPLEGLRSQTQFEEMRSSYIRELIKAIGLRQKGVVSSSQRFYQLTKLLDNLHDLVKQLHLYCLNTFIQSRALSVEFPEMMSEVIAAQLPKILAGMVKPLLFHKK
# Method: EXAMPLE 16 PROGESTERONE RECEPTOR-ANTAGONISTIC ACTION IN STABLE TRANSFECTANTS OF HUMAN NEUROBLASTOMA CELLS (SK-N-MC CELLS) WITH THE HUMAN PROGESTERONE A OR PROGESTERONE B RECEPTOR AND AN MTV-LUC REPORTER CONSTRUCT
# SK-N-MC cells (human neuroblastoma cells), which have been stably transfected with plasmids, which express the human progesterone receptor B (pRChPR-B-neo) or the human progesterone receptor A (pRChPR-A-neo) and a reporter construct (pMMTV-LUC), were incubated for 24 hours either in the absence (negative control) or in the presence of increasing amounts of the respective test compound (0.01 nmol/l, 0.1 nmol/l 1 nmol/l, 10 nmol/l, 100 nmol/l and 1 μmol/l), in order to determine the agonistic efficacy. As positive control of reporter gene induction, the cells were treated with the synthetic gestagen promegestone (0.01 nmol/l, 0.1 nmol/l, 1 nmol/l, 10 nmol/l, 100 nmol/l and 1 μmol/l). For determination of the antagonistic activity, the cells were treated with 0.1 nmol/1 promegestone and additionally with increasing amounts of the respective test compound (0.01 nmol/l, 0.1 nmol/l, 1 nmol/l, 10 nmol/l, 100 nmol/l and 1 μmol/l). The activity of the LUC reporter gene (LUC=luciferase) was determined in the cell lysates and was measured as RLU (relative light units). All measured values are given as percentage efficacy and as EC50 or IC50 concentrations.
# 11β-(4-Acetylphenyl)-20,20,21,21,21-pentafluoro-17-hydroxy-19-nor-17α-pregna-4,9-dien-3-one and 20,20,21,21,21-pentafluoro-17-hydroxy-11β-[4-(hydroxyacetyl)phenyl]-19-nor-17α-pregna-4,9-dien-3-one, very potent and therefore preferred examples from WO98/34947 and WO2008/058767, were tested as comparative compounds along with the test compound.
# [2] = Metabolic stability in human liver microsomes (HLM); assay type: in vitro ADME; conditions: from HLM half-life, well-stirred model, phase I reactions; 1 μM, 0.5 mg/ml protein
# Method: EXAMPLE 18 METABOLIC STABILITY OF (11β,17β)-17-HYDROXY-11[4-(METHYLSULPHONYL)PHENYL]-17-(PENTAFLUOROETHYL)ESTRA-4,9-DIEN-3-ONE AND (11β,17β)-17-HYDROXY-11-[4′-(METHYLSULPHONYL)-BIPHENYL-4-YL]-17-(PENTAFLUOROETHYL)ESTRA-4,9-DIEN-3-ONE IN HUMAN LIVER MICROSOMES (HLM)
# Isolated human liver microsomes (HLM) were used for assessing the metabolic stability of compounds of general formula I.
# Incubations were carried out with 2.4 ml of HLM solution (0.5 mg/ml protein content), 30 μl of the test compound (final concentration 1 μM) and 0.6 ml of the cofactor mixture (=NADPH-generating system of 3 IU glucose-6-phosphate dehydrogenase, 14.6 mg glucose-6-phosphate, 1.2 mg NADP) at 37° C. in 100 mM phosphate buffer at pH 7.4. Samples are taken at 6 time points (2-60 min), precipitated with an equal volume of methanol and the recovery of the test substances used in the supernatant is determined by LC-MS/MS analysis. The intrinsic clearance of the substance in the liver microsome preparation can be calculated from the half-life found for the breakdown of the substance. Based on this, together with various physiological characteristics according to the well-stirred model, it is then possible to predict a (metabolic) in vivo clearance with respect to phase I reactions. […]
# [3] = Chemical stability against temperature, light and oxidative stress; assay type: physicochemical; conditions: compared with analogue with alkanoyl or hydroxyalkanoyl group
structure (smiles),measurement,setting,value
"C[C@]12C[C@H](c3ccc(S(C)(=O)=O)cc3)C3=C4CCC(=O)C=C4CC[C@H]3[C@@H]1CC[C@@]2(O)C(F)(F)C(F)(F)F [Example 4, (11β,17β)-17-Hydroxy-11-[4-(methylsulphonyl)phenyl]-17-(pentafluoroethyl)estra-4,9-dien-3-one]",Progesterone receptor A (PR-A) Efficacy,[1],100%
same,(metabolic) in vivo clearance in humans predicted,[2],1.7 mL/min/kg
same,oxidation sensitivity,[3],surprisingly low oxidation sensitivity
same,stability under the influence of UV light,[3],surprisingly high stability
same,stability under thermal load,[3],surprisingly high stability under thermal load
